Assay results reported in PubChem BioAssay AID1963985 (Molecular Pharmacology Branch, DTP, NCI, 2024).

Test system: 252836-082-R-J2-PDC tumor spheroids, viability
Test: Anticancer human tumor 252836-082-R-J2-PDC patient-derived head and neck squamous cell carcinoma cell line growth inhibition [PI3K]
Settings: spheroids with HUVEC and MSC; for viability, T/C: stronger effect = lower value; active = viability on the fitted dose curve at most 10% of control; inactive = the rest
Procedure, shortened: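 Tumor cells were combined with HUVEC and MSCs into spheroids, then dosed with PI3K-inhibitor combinations over half-log ranges capped near clinical Cmax or 10 microM.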

[1] = curve of first compound, second compound 0.0316 µM
[2] = curve of first compound, second compound 0.1 µM
[3] = curve of first compound, second compound 0.316 µM
[4] = curve of first compound, second compound 1 µM
[5] = second compound 0.0316 µM, first compound 0.0316 µM
[6] = second compound 0.0316 µM, first compound 0.1 µM
[7] = second compound 0.1 µM, first compound 0.0316 µM
[8] = second compound 0.1 µM, first compound 0.1 µM
[9] = second compound 0.316 µM, first compound 0.0316 µM
[10] = second compound 0.316 µM, first compound 0.1 µM
[11] = second compound 1 µM, first compound 0.0316 µM
[12] = second compound 1 µM, first compound 0.1 µM
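Also: spheroids exposed to agents for seven days before readout.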
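For viability, T/C in this document: percent of vehicle DMSO control viability so 100% = untreated growth.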

Cn1ncnc1[C@H]1c2n[nH]c(=O)c3cc(F)cc(c23)N[C@@H]1c1ccc(F)cc1 + COc1c(OCCCN2CCOCC2)ccc2c3n(c(=NC(=O)c4cnc(N)nc4)nc12)CCN3
active: viability, T/C [9] 8.53% | viability, T/C [10] 6.35% | viability, T/C (second compound 1 µM, first compound 0.000316 µM) 4.84% | viability, T/C (second compound 1 µM, first compound 0.001 µM) 4.33% | viability, T/C (second compound 1 µM, first compound 0.00316 µM) 3.36% | viability, T/C (second compound 1 µM, first compound 0.01 µM) 2.93% | viability, T/C [11] 1.98% | viability, T/C [12] 2.41%
0.0441 µM: IC50 (curve of first compound, second compound 0.01 µM)
0.0906 µM: IC50 (curve of first compound, second compound 0.00316 µM)
0.013 µM: IC50 [1]
< 0.000316 µM: IC50 [2] | IC50 [3] | IC50 [4]
inactive: viability, T/C (second compound 0.00316 µM, first compound 0.000316 µM) 84.3% | viability, T/C (second compound 0.00316 µM, first compound 0.001 µM) 88.2% | viability, T/C (second compound 0.00316 µM, first compound 0.00316 µM) 86.4% | viability, T/C (second compound 0.00316 µM, first compound 0.01 µM) 72.1% | viability, T/C (second compound 0.00316 µM, first compound 0.0316 µM) 59.7% | viability, T/C (second compound 0.00316 µM, first compound 0.1 µM) 48.6% | viability, T/C (second compound 0.01 µM, first compound 0.000316 µM) 80.1% | viability, T/C (second compound 0.01 µM, first compound 0.001 µM) 67.5% | viability, T/C (second compound 0.01 µM, first compound 0.00316 µM) 80.7% | viability, T/C (second compound 0.01 µM, first compound 0.01 µM) 72.8% | viability, T/C (second compound 0.01 µM, first compound 0.0316 µM) 55.6% | viability, T/C (second compound 0.01 µM, first compound 0.1 µM) 36.2% | viability, T/C (second compound 0.0316 µM, first compound 0.000316 µM) 49.3% | viability, T/C (second compound 0.0316 µM, first compound 0.001 µM) 60.8% | viability, T/C (second compound 0.0316 µM, first compound 0.00316 µM) 52% | viability, T/C (second compound 0.0316 µM, first compound 0.01 µM) 52.1% | viability, T/C [5] 44.2% | viability, T/C [6] 24.4% | viability, T/C (second compound 0.1 µM, first compound 0.000316 µM) 33.4% | viability, T/C (second compound 0.1 µM, first compound 0.001 µM) 35.1% | viability, T/C (second compound 0.1 µM, first compound 0.00316 µM) 34.8% | viability, T/C (second compound 0.1 µM, first compound 0.01 µM) 30.9% | viability, T/C [7] 19% | viability, T/C [8] 11.8% | viability, T/C (second compound 0.316 µM, first compound 0.000316 µM) 19.1% | viability, T/C (second compound 0.316 µM, first compound 0.001 µM) 16% | viability, T/C (second compound 0.316 µM, first compound 0.00316 µM) 13.6% | viability, T/C (second compound 0.316 µM, first compound 0.01 µM) 9.81%

Cn1nccc1Nc1nccc(-c2ccn(C(CO)c3ccc(Cl)c(F)c3)c(=O)c2)n1 (stereo unspecified)
inactive: viability, T/C (compound 0.0316 µM) 95.5% [middle of 4 runs] | viability, T/C (compound 0.1 µM) 100% [middle of 4 runs] | viability, T/C (compound 0.316 µM) 96.9% [middle of 4 runs] | viability, T/C (compound 1 µM) 96.5% [middle of 4 runs] | viability, T/C (compound 3.16 µM) 85.2% [middle of 4 runs] | viability, T/C (compound 10 µM) 74.2% [middle of 4 runs]
> 10 µM: IC50 (curve of compound)

C=CC(=O)N1CCN(c2nc(=O)n(-c3c(C)ccnc3C(C)C)c3nc(-c4c(O)cccc4F)c(F)cc23)C(C)C1 (stereo unspecified) + Cc1nc(NC(=O)N2CCCC2C(N)=O)sc1-c1ccnc(C(C)(C)C(F)(F)F)c1
< 0.0316 µM: IC50 (curve of first compound, second compound 3.16 µM) | IC50 (curve of first compound, second compound 10 µM)
inactive: viability, T/C [5] 101% | viability, T/C [6] 87.1% | viability, T/C (second compound 0.0316 µM, first compound 0.316 µM) 104% | viability, T/C (second compound 0.0316 µM, first compound 1 µM) 95.7% | viability, T/C (second compound 0.0316 µM, first compound 3.16 µM) 107% | viability, T/C (second compound 0.0316 µM, first compound 10 µM) 107% | viability, T/C [7] 78.5% | viability, T/C [8] 82.1% | viability, T/C (second compound 0.1 µM, first compound 0.316 µM) 101% | viability, T/C (second compound 0.1 µM, first compound 1 µM) 79.5% | viability, T/C (second compound 0.1 µM, first compound 3.16 µM) 105% | viability, T/C (second compound 0.1 µM, first compound 10 µM) 95.8% | viability, T/C [9] 79.9% | viability, T/C [10] 83.2% | viability, T/C (second compound 0.316 µM, first compound 0.316 µM) 76% | viability, T/C (second compound 0.316 µM, first compound 1 µM) 86.5% | viability, T/C (second compound 0.316 µM, first compound 3.16 µM) 84.5% | viability, T/C (second compound 0.316 µM, first compound 10 µM) 80.9% | viability, T/C [11] 61.2% | viability, T/C [12] 60.4% | viability, T/C (second compound 1 µM, first compound 0.316 µM) 80.3% | viability, T/C (second compound 1 µM, first compound 1 µM) 73% | viability, T/C (second compound 1 µM, first compound 3.16 µM) 64.9% | viability, T/C (second compound 1 µM, first compound 10 µM) 75.9% | viability, T/C (second compound 3.16 µM, first compound 0.0316 µM) 47.2% | viability, T/C (second compound 3.16 µM, first compound 0.1 µM) 49.1% | viability, T/C (second compound 3.16 µM, first compound 0.316 µM) 50.2% | viability, T/C (second compound 3.16 µM, first compound 1 µM) 49.2% | viability, T/C (second compound 3.16 µM, first compound 3.16 µM) 74% | viability, T/C (second compound 3.16 µM, first compound 10 µM) 44.9% | viability, T/C (second compound 10 µM, first compound 0.0316 µM) 37.2% | viability, T/C (second compound 10 µM, first compound 0.1 µM) 34.5% | viability, T/C (second compound 10 µM, first compound 0.316 µM) 36.3% | viability, T/C (second compound 10 µM, first compound 1 µM) 36.5% | viability, T/C (second compound 10 µM, first compound 3.16 µM) 40.2% | viability, T/C (second compound 10 µM, first compound 10 µM) 42.2%
> 10 µM: IC50 [1] | IC50 [2] | IC50 [3] | IC50 [4]
